Values quoted from earlier work as cited in patent US20040037773A1, “Method for detecting abnormal tissue using enhanced radiopharmaceutical uptake” (Block Medical Center, priority 2002, published 2004).

Test system: mitochondria
Details: energy dependent manner

Share of sestamibi taken up by mitochondria: over 90%
SMILES: [99Tc+].[C-]#[N+]CC(C)(C)OC.[C-]#[N+]CC(C)(C)OC.[C-]#[N+]CC(C)(C)OC.[C-]#[N+]CC(C)(C)OC.[C-]#[N+]CC(C)(C)OC.[C-]#[N+]CC(C)(C)OC [sestamibi, Technetium-99m hexakis 2-methoxyisobutylisonitrile]
